{"source": "ChEMBL document CHEMBL4138146", "about": "“A Schmidt rearrangement-mediated synthesis of novel tetrahydro-benzo[1,4]diazepin-5-ones as potential anticancer and antiprotozoal agents” (Eur J Med Chem, 2017)", "type_in_all_cases": "functional", "key": {"DU-145": {"tested_on": "DU-145", "assay": "Growth inhibition of human DU145 cells assessed as cell growth at 10^-5 M incubated for 48 hrs by sulforhodamine B assay relative to control", "conditions": "DU-145, 48 h, read-out: Activity"}, "CAKI-1": {"tested_on": "CAKI-1", "assay": "Growth inhibition of human Caki1 cells assessed as cell growth at 10^-5 M incubated for 48 hrs by sulforhodamine B assay relative to control", "conditions": "CAKI-1, 48 h, read-out: Activity"}, "OVCAR-5 [1]": {"tested_on": "OVCAR-5", "assay": "Growth inhibition of human OVCAR5 cells assessed as cell growth at 10^-5 M incubated for 48 hrs by sulforhodamine B assay relative to control", "conditions": "OVCAR-5, 48 h, read-out: Activity"}, "SK-MEL-2 [2]": {"tested_on": "SK-MEL-2", "assay": "Growth inhibition of human SK-MEL-2 cells assessed as cell growth at 10^-8 M incubated for 48 hrs by sulforhodamine B assay relative to control", "conditions": "SK-MEL-2, 48 h, read-out: Activity"}, "MDA-MB-231 [3]": {"tested_on": "MDA-MB-231", "assay": "Growth inhibition of human MDA-MB-231 cells assessed as cell growth at 10^-8 M incubated for 48 hrs by sulforhodamine B assay relative to control", "conditions": "MDA-MB-231, 48 h, read-out: Activity"}, "HCT-15": {"tested_on": "HCT-15", "assay": "Growth inhibition of human HCT15 cells assessed as cell growth at 10^-6 M incubated for 48 hrs by sulforhodamine B assay relative to control", "conditions": "HCT-15, 48 h, read-out: Activity"}, "MDA-MB-468 [4]": {"tested_on": "MDA-MB-468", "assay": "Growth inhibition of human MDA-MB-468 cells assessed as cell growth at 10^-8 M incubated for 48 hrs by sulforhodamine B assay relative to control", "conditions": "MDA-MB-468, 48 h, read-out: Activity"}, "SNB-19 [5]": {"tested_on": "SNB-19", "assay": "Growth inhibition of human SNB19 cells assessed as cell growth at 10^-7 M incubated for 48 hrs by sulforhodamine B assay relative to control", "conditions": "SNB-19, 48 h, read-out: Activity"}, "MDA-MB-468 [6]": {"tested_on": "MDA-MB-468", "assay": "Growth inhibition of human MDA-MB-468 cells assessed as cell growth at 10^-7 M incubated for 48 hrs by sulforhodamine B assay relative to control", "conditions": "MDA-MB-468, 48 h, read-out: Activity"}, "HOP-62 [7]": {"tested_on": "HOP-62", "assay": "Growth inhibition of human HOP62 cells assessed as cell growth at 10^-4 M incubated for 48 hrs by sulforhodamine B assay relative to control", "conditions": "HOP-62, 48 h, read-out: Activity"}, "MDA-MB-231 [8]": {"tested_on": "MDA-MB-231", "assay": "Growth inhibition of human MDA-MB-231 cells assessed as cell growth at 10^-6 M incubated for 48 hrs by sulforhodamine B assay relative to control", "conditions": "MDA-MB-231, 48 h, read-out: Activity"}, "MDA-MB-468 [9]": {"tested_on": "MDA-MB-468", "assay": "Growth inhibition of human MDA-MB-468 cells assessed as cell growth at 10^-4 M incubated for 48 hrs by sulforhodamine B assay relative to control", "conditions": "MDA-MB-468, 48 h, read-out: Activity"}, "IGROV-1": {"tested_on": "IGROV-1", "assay": "Growth inhibition of human IGROV1 cells assessed as cell growth at 10^-6 M incubated for 48 hrs by sulforhodamine B assay relative to control", "conditions": "IGROV-1, 48 h, read-out: Activity"}, "M14": {"tested_on": "M14", "assay": "Growth inhibition of human M14 cells assessed as cell growth at 10^-6 M incubated for 48 hrs by sulforhodamine B assay relative to control", "conditions": "M14, 48 h, read-out: Activity"}, "UACC-257": {"tested_on": "UACC-257", "assay": "Growth inhibition of human UACC257 cells assessed as cell growth at 10^-5 M incubated for 48 hrs by sulforhodamine B assay relative to control", "conditions": "UACC-257, 48 h, read-out: Activity"}, "SK-MEL-28": {"tested_on": "SK-MEL-28", "assay": "Growth inhibition of human SK-MEL-28 cells assessed as cell growth at 10^-5 M incubated for 48 hrs by sulforhodamine B assay relative to control", "conditions": "SK-MEL-28, 48 h, read-out: Activity"}, "A498 [10]": {"tested_on": "A498", "assay": "Growth inhibition of human A498 cells assessed as cell growth at 10^-5 M incubated for 48 hrs by sulforhodamine B assay relative to control", "conditions": "A498, 48 h, read-out: Activity"}, "SK-MEL-2 [11]": {"tested_on": "SK-MEL-2", "assay": "Growth inhibition of human SK-MEL-2 cells assessed as cell growth at 10^-4 M incubated for 48 hrs by sulforhodamine B assay relative to control", "conditions": "SK-MEL-2, 48 h, read-out: Activity"}, "SF-539": {"tested_on": "SF-539", "assay": "Growth inhibition of human SF539 cells assessed as cell growth at 10^-5 M incubated for 48 hrs by sulforhodamine B assay relative to control", "conditions": "SF-539, 48 h, read-out: Activity"}, "A549": {"tested_on": "A549", "assay": "Growth inhibition of human A549/ATCC cells assessed as cell growth at 10^-7 M incubated for 48 hrs by sulforhodamine B assay relative to control", "conditions": "A549, 48 h, read-out: Activity"}, "EKVX": {"tested_on": "EKVX", "assay": "Growth inhibition of human EKVX cells assessed as cell growth at 10^-4 M incubated for 48 hrs by sulforhodamine B assay relative to control", "conditions": "read-out: Activity"}, "SF-295": {"tested_on": "SF-295", "assay": "Growth inhibition of human SF295 cells assessed as cell growth at 10^-6 M incubated for 48 hrs by sulforhodamine B assay relative to control", "conditions": "SF-295, 48 h, read-out: Activity"}, "SN12C": {"tested_on": "SN12C", "assay": "Growth inhibition of human SN12C cells assessed as cell growth at 10^-7 M incubated for 48 hrs by sulforhodamine B assay relative to control", "conditions": "read-out: Activity"}, "RPMI-8226": {"tested_on": "RPMI-8226", "assay": "Growth inhibition of human RPMI8226 cells assessed as cell growth at 10^-5 M incubated for 48 hrs by sulforhodamine B assay relative to control", "conditions": "RPMI-8226, 48 h, read-out: Activity"}, "MDA-MB-231 [12]": {"tested_on": "MDA-MB-231", "assay": "Growth inhibition of human MDA-MB-231 cells assessed as cell growth at 10^-5 M incubated for 48 hrs by sulforhodamine B assay relative to control", "conditions": "MDA-MB-231, 48 h, read-out: Activity"}, "A498 [13]": {"tested_on": "A498", "assay": "Growth inhibition of human A498 cells assessed as cell growth at 10^-8 M incubated for 48 hrs by sulforhodamine B assay relative to control", "conditions": "A498, 48 h, read-out: Activity"}, "SK-MEL-5": {"tested_on": "SK-MEL-5", "assay": "Growth inhibition of human SK-MEL-5 cells assessed as cell growth at 10^-8 M incubated for 48 hrs by sulforhodamine B assay relative to control", "conditions": "SK-MEL-5, 48 h, read-out: Activity"}, "NCI-H460": {"tested_on": "NCI-H460", "assay": "Growth inhibition of human NCI-H460 cells assessed as cell growth at 10^-6 M incubated for 48 hrs by sulforhodamine B assay relative to control", "conditions": "NCI-H460, 48 h, read-out: Activity"}, "SNB-19 [14]": {"tested_on": "SNB-19", "assay": "Growth inhibition of human SNB19 cells assessed as cell growth at 10^-6 M incubated for 48 hrs by sulforhodamine B assay relative to control", "conditions": "SNB-19, 48 h, read-out: Activity"}, "OVCAR-5 [15]": {"tested_on": "OVCAR-5", "assay": "Growth inhibition of human OVCAR5 cells assessed as cell growth at 10^-8 M incubated for 48 hrs by sulforhodamine B assay relative to control", "conditions": "OVCAR-5, 48 h, read-out: Activity"}, "HOP-62 [16]": {"tested_on": "HOP-62", "assay": "Growth inhibition of human HOP62 cells assessed as cell growth at 10^-8 M incubated for 48 hrs by sulforhodamine B assay relative to control", "conditions": "HOP-62, 48 h, read-out: Activity"}, "SR": {"tested_on": "SR", "assay": "Growth inhibition of human SR cells assessed as cell growth at 10^-6 M incubated for 48 hrs by sulforhodamine B assay relative to control", "conditions": "read-out: Activity"}, "Malme-3M": {"tested_on": "Malme-3M", "assay": "Growth inhibition of human MALME-3M cells assessed as cell growth at 10^-5 M incubated for 48 hrs by sulforhodamine B assay relative to control", "conditions": "read-out: Activity"}, "CCRF-CEM": {"tested_on": "CCRF-CEM", "assay": "Growth inhibition of human CCRF-CEM cells assessed as cell growth at 10^-5 M incubated for 48 hrs by sulforhodamine B assay relative to control", "conditions": "read-out: Activity"}}, "data": [{"smiles": "CCCCOc1nc2ccccc2cc1C1CNC(=O)c2ccccc2N1", "note": "(centres undefined)", "values": [{"measurement": "growth at 10 µM", "setting": "DU-145", "value": 5, "unit": "%"}, {"measurement": "growth at 10 µM", "setting": "CAKI-1", "value": 25, "unit": "%"}, {"measurement": "growth at 10 µM", "setting": "OVCAR-5 [1]", "value": 38, "unit": "%"}, {"measurement": "growth at 0.01 µM", "setting": "SK-MEL-2 [2]", "value": 96, "unit": "%"}, {"measurement": "growth at 0.01 µM", "setting": "MDA-MB-231 [3]", "value": 98, "unit": "%"}, {"measurement": "growth at 1 µM", "setting": "HCT-15", "value": 69, "unit": "%"}, {"measurement": "growth at 0.01 µM", "setting": "MDA-MB-468 [4]", "value": 78, "unit": "%"}, {"measurement": "growth at 0.1 µM", "setting": "SNB-19 [5]", "value": 95, "unit": "%"}, {"measurement": "growth at 0.1 µM", "setting": "MDA-MB-468 [6]", "value": 93, "unit": "%"}, {"measurement": "growth at 100 µM", "setting": "HOP-62 [7]", "value": -59, "unit": "%"}, {"measurement": "growth at 1 µM", "setting": "MDA-MB-231 [8]", "value": 85, "unit": "%"}, {"measurement": "growth at 100 µM", "setting": "MDA-MB-468 [9]", "value": -43, "unit": "%"}, {"measurement": "growth at 1 µM", "setting": "IGROV-1", "value": 86, "unit": "%"}, {"measurement": "growth at 1 µM", "setting": "M14", "value": 61, "unit": "%"}, {"measurement": "growth at 10 µM", "setting": "UACC-257", "value": 48, "unit": "%"}, {"measurement": "growth at 10 µM", "setting": "SK-MEL-28", "value": 44, "unit": "%"}, {"measurement": "growth at 10 µM", "setting": "A498 [10]", "value": -21, "unit": "%"}, {"measurement": "growth at 100 µM", "setting": "SK-MEL-2 [11]", "value": -15, "unit": "%"}, {"measurement": "growth at 10 µM", "setting": "SF-539", "value": -12, "unit": "%"}, {"measurement": "growth at 0.1 µM", "setting": "A549", "value": 100, "unit": "%"}, {"measurement": "growth at 100 µM", "setting": "EKVX", "value": -3, "unit": "%"}, {"measurement": "growth at 1 µM", "setting": "SF-295", "value": 59, "unit": "%"}, {"measurement": "growth at 0.1 µM", "setting": "SN12C", "value": 90, "unit": "%"}, {"measurement": "growth at 10 µM", "setting": "RPMI-8226", "value": 9, "unit": "%"}, {"measurement": "growth at 10 µM", "setting": "MDA-MB-231 [12]", "value": 25, "unit": "%"}, {"measurement": "growth at 0.01 µM", "setting": "A498 [13]", "value": 82, "unit": "%"}, {"measurement": "growth at 0.01 µM", "setting": "SK-MEL-5", "value": 93, "unit": "%"}, {"measurement": "growth at 1 µM", "setting": "NCI-H460", "value": 94, "unit": "%"}, {"measurement": "growth at 1 µM", "setting": "SNB-19 [14]", "value": 95, "unit": "%"}, {"measurement": "growth at 0.01 µM", "setting": "OVCAR-5 [15]", "value": 98, "unit": "%"}, {"measurement": "growth at 0.01 µM", "setting": "HOP-62 [16]", "value": 93, "unit": "%"}, {"measurement": "growth at 1 µM", "setting": "SR", "value": 55, "unit": "%"}, {"measurement": "growth at 10 µM", "setting": "Malme-3M", "value": 41, "unit": "%"}, {"measurement": "growth at 10 µM", "setting": "CCRF-CEM", "value": 11, "unit": "%"}]}]}
